Reference: patent EP1282414B1, “FELBAMATE DERIVED COMPOUNDS FOR TREATING NEUROPATHIC PAIN” (University of Virginia Patent Foundation, priority 2000, dated 2001)
Marks after values point to notes of the source that are not given here.

Legend:
pentylenetetrazol [1] = assay: Subcutaneous Metrazol seizure test (scMET), mice i.p.; assay type: in vivo, Carworth Farms No. 1 mice; conditions: for ScMET, number of animals protected / total number of animals tested: mice i.p.
Description: (§1) The fluoro derivatives synthesized were submitted to the National Institute of Neurological Disorders and Stroke (NINDS) for evaluation in a standard panel of assays. Two convulsant tests (MES and scMET), and a toxicity screen (rotorod in mice, positional sense and gait in rats) were employed for evaluating the compounds activity as neuroprotecting agents. These testing procedures are described in detail in Molecular and Cellular Targets for Anti-epileptic Drugs, eds. G. Avanzini, G. Regesta, P. Tanganelli, M. Avoli, 1997, John Libbey & Company Ltd, pp 191-198. The felbamate derivatives were evaluated for anticonvulsant activity following intraperitoneal (i.p.) administration in mice and oral administration in rats.
This is a model that primarily identifies compounds that raise seizure threshold. With some minor exceptions, the pharmacological profile of the scMET seizure model is consistent with the human condition. The scMET test utilizes a dose of pentylenetetrazol (85 mg/kg in Carworth Farms No. 1 mice and 70 mg/kg in Sprague-Dawley rats) that induces clonic seizures lasting for a period of at least five seconds in 97 % (CD97) of animals tested. At the anticipated time of testing the convulsant is administered subcutaneously. The test compound is administered intraperitoneally in mice and orally in rats. Animals are observed over a 30 minute period. Absence of clonic spasms in the observed time period indicates a compound's ability to abolish the effect of pentylenetetrazol on seizure threshold.
For the MES and scMET tests the data is presented in the form of the number of animals protected by the administered compound / total number of animals tested. […] Qualitative data was obtained for fluoro felbamate 12 (Tables 1 and 2A), fluoro monocarbamate felbamate 13 (Tables 1 and 2B), and fluorodioxo 16 (Tables 1 and 2C) and for cyclic felbamate 21 (Tables 5 and 6B) and cyclic monocarbamate 22 (Tables 5 and 6A). More extensive quantitative data was also obtained for fluoro felbamate 12 in mice (Table 3) and rats (Table 4).

pentylenetetrazol [2] = assay: Subcutaneous Metrazol seizure test (scMET), rats p.o.; assay type: in vivo, Sprague-Dawley rats; conditions: po, rat
Description: as §1
This is a model that primarily identifies compounds that raise seizure threshold. With some minor exceptions, the pharmacological profile of the scMET seizure model is consistent with the human condition. […]
For the MES and scMET tests the data is presented in the form of the number of animals protected by the administered compound / total number of animals tested. […] More extensive quantitative data was also obtained for fluoro felbamate 12 in mice (Table 3) and rats (Table 4).

seizures = assay: NINDS standard panel of assays (MES, scMET, toxicity screen), overall; assay type: in vivo; conditions: relative to felbamate
Description: as §1

mice = assay: Toxicity, mice oral; assay type: in vivo; conditions: oral administration
Method: Toxicity induced by a compound is detected in mice using the standardized rotorod test described by Dunham & Miya (1957). Untreated control mice, when placed on a 6 r.p.m. rotation rod, can maintain their equilibrium for a prolonged period of time.
Toxicity across time doe not occur until dosages of 300mg/kg. […] Quantitative results obtained for fluoro felbamate 12 in mice indicated a MES ED50 of approximately 20 mg/kg with a safety ratio of at least five (see Table 3). Results obtained for oral administration of fluoro felbamate 12 to rats indicated a MES ED50 of about 3 mg/kg with no toxicity at doses up to 500 mg/kg.

focal seizures = assay: Hippocampal kindling model (kindled rats), i.p.; assay type: in vivo, adult male Sprague-Dawley rats; design: key to Seizure Score ± S.E.M.: Racine seizure score (stage 5 = generalized seizure); conditions: for Number Protected / Number Tested / Afterdischarge Duration (sec) ± S.E.M / Seizure Score ± S.E.M.: i.p.
Description: The hippocampal kindling model can be used to evaluate a compound's ability to affect both the expression and acquisition of focal seizures. The hippocampal kindling paradigm as described by Lothman and Williamson (Lothman, 1994) allows the temporal effects of a drug to be evaluated in a single animal. This procedure requires the surgical placement ofbipolar electrodes in the ventral hippocampus of adult male Sprague-Dawley rats. Stage five behavioral seizures are produced by using a stimulus consisting of a 50 Hz, 10 s train of 1 ms biphasic 200 uA pulses delivered every 30 min for 6 hours (12 stimuli per day) on alternating days for a total of 60 stimulations (five stimulus days). Prior to evaluating a candidate's anticonvulsant activity, a drug free control period consisting of supramaximal stimulations are recorded to verify the stability of a stage five generalized seizure.
A single dose of the candidate compound is then administered intraperitoneally (i.p.), 15 min following the last control stimulation. The anticonvulsant activity of the drug is assessed every 30 min for three to four hours starting 15 min after administering the test material. After each stimulation, individual Racine seizure scores and afterdischarge durations are recorded. Rats are used again in drug trials after four to five drug- and stimulus-free days.

[3] = Dose Responses, 25 mg/kg (time not given)
[4] = Dose Responses, 50 mg/kg (time not given)
[5] = Dose Responses, 100 mg/kg (time not given)

## NC(=O)OCC(F)(COC(N)=O)c1ccccc1 [fluoro felbamate, 2-Fluoro-2-phenyl-1,3-propanediol dicarbamate]
Pentylenetetrazol [1]; Mus musculus, ip, read-out: ScMET ED50
  ED50: > 160 mg/kg
Pentylenetetrazol [1]; 30 mg/kg, 0.5h
  ScMET, number of animals protected / total number of animals tested: 0/1
Pentylenetetrazol [1]; 30 mg/kg, 4.0h
  ScMET, number of animals protected / total number of animals tested: 0/1
Pentylenetetrazol [1]; 100 mg/kg, 0.5h
  ScMET, number of animals protected / total number of animals tested: 0/1
Pentylenetetrazol [1]; 100 mg/kg, 4.0h
  ScMET, number of animals protected / total number of animals tested: 0/1
Pentylenetetrazol [1]; 300 mg/kg, 0.5h
  ScMET, number of animals protected / total number of animals tested: 0/1
Pentylenetetrazol [1]; 300 mg/kg, 4.0h
  ScMET, number of animals protected / total number of animals tested: 0/1
Pentylenetetrazol [2]
  ED50: > 250 mg/kg
seizures
  times more active than felbamate: 5-10 times
mice
  no toxicity at doses up to: up to 218 mg/kg
Focal seizures; 100mg/kg
  change in afterdischarge duration (in words): corresponding decrease
  change in seizure score (in words): significant drop
Focal seizures; Dose Responses, 25 mg/kg
  Number Protected / Number Tested: 0/7
Focal seizures; [3]
  Afterdischarge Duration (sec) ± S.E.M: 71.43 ± 5.50 s
  Seizure Score ± S.E.M.: 4.57 ± 0.20
Focal seizures; Dose Responses, 50 mg/kg
  Number Protected / Number Tested: 3/7
Focal seizures; [4]
  Afterdischarge Duration (sec) ± S.E.M: 68.57 ± 20.14 s
  Seizure Score ± S.E.M.: 2.86 ± 0.83
Focal seizures; Dose Responses, 100 mg/kg
  Number Protected / Number Tested: 7/8^a
Focal seizures; [5]
  Afterdischarge Duration (sec) ± S.E.M: 29.00 ± 10.86 s
  Seizure Score ± S.E.M.: 1.50 ± 0.57
Focal seizures; 25 mg/kg, 15 min
  Afterdischarge Duration (sec) ± S.E.M: 77.29 ± 4.91 s
  Seizure Score ± S.E.M.: 4.86 ± 0.14
Focal seizures; 25 mg/kg, 45 min
  Afterdischarge Duration (sec) ± S.E.M: 71.43 ± 5.50 s
  Seizure Score ± S.E.M.: 4.57 ± 0.20
Focal seizures; 25 mg/kg, 75 min
  Afterdischarge Duration (sec) ± S.E.M: 64.43 ± 11.19 s
  Seizure Score ± S.E.M.: 4.00 ± 0.69
Focal seizures; 25 mg/kg, 105 min
  Afterdischarge Duration (sec) ± S.E.M: 70.29 ± 4.85 s
  Seizure Score ± S.E.M.: 4.57 ± 0.20
Focal seizures; 25 mg/kg, 135 min
  Afterdischarge Duration (sec) ± S.E.M: 53.86 ± 9.33 s
  Seizure Score ± S.E.M.: 4.43 ± 0.57
Focal seizures; 25 mg/kg, 165 min
  Afterdischarge Duration (sec) ± S.E.M: 59.29 ± 3.28 s
  Seizure Score ± S.E.M.: 4.71 ± 0.18
Focal seizures; 25 mg/kg, 195 min
  Afterdischarge Duration (sec) ± S.E.M: 54.00 ± 9.62 s
  Seizure Score ± S.E.M.: 3.86 ± 0.67
Focal seizures; 25 mg/kg, 225 min
  Afterdischarge Duration (sec) ± S.E.M: 53.29 ± 9.03 s
  Seizure Score ± S.E.M.: 4.00 ± 0.69
Focal seizures; 25 mg/kg, 255 min
  Afterdischarge Duration (sec) ± S.E.M: 64.00 ± 3.42 s
  Seizure Score ± S.E.M.: 4.86 ± 0.14
Focal seizures; 50 mg/kg, 15 min
  Afterdischarge Duration (sec) ± S.E.M: 67.14 ± 12.39 s
  Seizure Score ± S.E.M.: 3.86 ± 0.70
Focal seizures; 50 mg/kg, 45 min
  Afterdischarge Duration (sec) ± S.E.M: 68.57 ± 20.14 s
  Seizure Score ± S.E.M.: 2.86 ± 0.83
Focal seizures; 50 mg/kg, 75 min
  Afterdischarge Duration (sec) ± S.E.M: 63.00 ± 17.45 s
  Seizure Score ± S.E.M.: 3.14 ± 0.83
Focal seizures; 50 mg/kg, 105 min
  Afterdischarge Duration (sec) ± S.E.M: 60.86 ± 14.93 s
  Seizure Score ± S.E.M.: 3.43 ± 0.90
Focal seizures; 50 mg/kg, 135 min
  Afterdischarge Duration (sec) ± S.E.M: 65.00 ± 13.10 s
  Seizure Score ± S.E.M.: 3.71 ± 0.64
Focal seizures; 50 mg/kg, 165 min
  Afterdischarge Duration (sec) ± S.E.M: 43.14 ± 14.67 s
  Seizure Score ± S.E.M.: 2.71 ± 0.97
Focal seizures; 50 mg/kg, 195 min
  Afterdischarge Duration (sec) ± S.E.M: 52.86 ± 14.59 s
  Seizure Score ± S.E.M.: 3.14 ± 0.83
Focal seizures; 50 mg/kg, 225 min
  Afterdischarge Duration (sec) ± S.E.M: 39.86 ± 10.98 s
  Seizure Score ± S.E.M.: 3.00 ± 0.87
Focal seizures; 50 mg/kg, 255 min
  Afterdischarge Duration (sec) ± S.E.M: 33.29 ± 11.76 s
  Seizure Score ± S.E.M.: 2.57 ± 0.72
Focal seizures; 100 mg/kg, 15 min
  Afterdischarge Duration (sec) ± S.E.M: 40.75 ± 15.74 s
  Seizure Score ± S.E.M.: 1.75 ± 0.73
Focal seizures; 100 mg/kg, 45 min
  Afterdischarge Duration (sec) ± S.E.M: 29.00 ± 10.86 s
  Seizure Score ± S.E.M.: 1.50 ± 0.57
Focal seizures; 100 mg/kg, 75 min
  Afterdischarge Duration (sec) ± S.E.M: 38.63 ± 12.58 s
  Seizure Score ± S.E.M.: 1.88 ± 0.67
Focal seizures; 100 mg/kg, 105 min
  Afterdischarge Duration (sec) ± S.E.M: 53.38 ± 12.59 s
  Seizure Score ± S.E.M.: 2.38 ± 0.65
Focal seizures; 100 mg/kg, 135 min
  Afterdischarge Duration (sec) ± S.E.M: 33.63 ± 12.88 s
  Seizure Score ± S.E.M.: 2.00 ± 0.76
Focal seizures; 100 mg/kg, 165 min
  Afterdischarge Duration (sec) ± S.E.M: 43.38 ± 12.79 s
  Seizure Score ± S.E.M.: 2.75 ± 0.65
Focal seizures; 100 mg/kg, 195 min
  Afterdischarge Duration (sec) ± S.E.M: 45.25 ± 13.33 s
  Seizure Score ± S.E.M.: 2.25 ± 0.70
Focal seizures; 100 mg/kg, 225 min
  Afterdischarge Duration (sec) ± S.E.M: 47.38 ± 14.80 s
  Seizure Score ± S.E.M.: 2.50 ± 0.73
Focal seizures; 100 mg/kg, 255 min
  Afterdischarge Duration (sec) ± S.E.M: 45.38 ± 13.92 s
  Seizure Score ± S.E.M.: 2.50 ± 0.65
